# Results published in the Kinase Knowledgebase extract (Sharma et al. 2016).
# pIC50: −log10 of the molar value.
# Molecular target: ROCK2 (human) (UniProt O75116)
# Experiment: Inhibition of ROCK2 Kinase Activity
# Conditions: not given
# ROCK2 (human), sequence (O75116 whole entry, looked up): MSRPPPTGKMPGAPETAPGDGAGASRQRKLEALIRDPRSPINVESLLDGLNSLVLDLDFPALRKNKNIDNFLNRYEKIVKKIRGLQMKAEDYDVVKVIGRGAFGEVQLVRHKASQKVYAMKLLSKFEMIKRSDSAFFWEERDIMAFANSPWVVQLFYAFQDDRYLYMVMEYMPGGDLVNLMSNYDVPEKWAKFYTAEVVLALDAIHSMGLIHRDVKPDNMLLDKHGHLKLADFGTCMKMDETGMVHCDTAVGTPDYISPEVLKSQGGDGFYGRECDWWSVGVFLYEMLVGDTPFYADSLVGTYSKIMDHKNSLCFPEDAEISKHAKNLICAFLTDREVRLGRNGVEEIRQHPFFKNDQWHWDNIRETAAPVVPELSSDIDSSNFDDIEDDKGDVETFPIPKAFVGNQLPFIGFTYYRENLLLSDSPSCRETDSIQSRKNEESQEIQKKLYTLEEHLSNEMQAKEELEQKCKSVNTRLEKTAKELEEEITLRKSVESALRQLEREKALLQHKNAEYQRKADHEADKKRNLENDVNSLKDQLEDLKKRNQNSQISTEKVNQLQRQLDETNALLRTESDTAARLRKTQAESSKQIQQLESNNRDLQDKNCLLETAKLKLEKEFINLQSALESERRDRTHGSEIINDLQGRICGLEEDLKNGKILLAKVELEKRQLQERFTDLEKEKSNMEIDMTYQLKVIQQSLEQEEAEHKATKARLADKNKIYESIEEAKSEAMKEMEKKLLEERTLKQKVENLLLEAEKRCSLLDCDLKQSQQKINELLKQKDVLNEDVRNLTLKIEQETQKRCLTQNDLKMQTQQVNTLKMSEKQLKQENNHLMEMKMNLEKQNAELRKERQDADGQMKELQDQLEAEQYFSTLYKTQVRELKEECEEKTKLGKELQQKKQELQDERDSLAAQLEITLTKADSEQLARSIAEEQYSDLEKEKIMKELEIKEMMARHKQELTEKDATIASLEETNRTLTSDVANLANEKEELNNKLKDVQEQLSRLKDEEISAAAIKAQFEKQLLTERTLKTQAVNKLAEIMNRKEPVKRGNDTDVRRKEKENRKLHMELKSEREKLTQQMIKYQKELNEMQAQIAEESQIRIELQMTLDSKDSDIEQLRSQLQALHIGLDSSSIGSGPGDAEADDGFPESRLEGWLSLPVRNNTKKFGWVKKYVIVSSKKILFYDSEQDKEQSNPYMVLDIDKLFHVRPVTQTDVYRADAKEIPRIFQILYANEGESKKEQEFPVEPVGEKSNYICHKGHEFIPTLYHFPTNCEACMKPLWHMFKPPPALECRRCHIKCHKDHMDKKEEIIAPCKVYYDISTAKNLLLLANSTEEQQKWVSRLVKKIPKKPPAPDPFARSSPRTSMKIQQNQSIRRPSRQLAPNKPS
row,pIC50,Structure (SMILES)
1,5.72,C=CC[C@@H](N)[C@H]1CC[C@H](C(=O)Nc2ccncc2)CC1
2,5.19,CCCCCCCCN(N)[C@H]1CC[C@H](C(=O)Nc2ccncc2)CC1

# Same assay, conditions: concentration not given here
row,inhibition [%],Structure (SMILES)
1,63,CN(N)[C@H]1CC[C@H](C(=O)Nc2ccncc2)CC1
2,0,C=CCC(N)[C@H]1CC[C@H](C(=O)Nc2ncnc3[nH]cnc23)CC1 (stereo partly drawn)
3,19,CCCN(N)[C@H]1CC[C@@H](C(=O)Nc2ccncc2)CC1
4,49,NN(C/C=C/c1ccccc1)[C@H]1CC[C@H](C(=O)Nc2ccncc2)CC1
5,81,C=CC[C@@H](N)[C@H]1CC[C@H](C(=O)Nc2ccncc2)CC1
6,63,C=CC[C@H](N)[C@H]1CC[C@H](C(=O)Nc2ccncc2)CC1
7,53,CCCCCCCCN(N)[C@H]1CC[C@H](C(=O)Nc2ccncc2)CC1
8,33,CN(N)[C@H]1CC[C@@H](C(=O)Nc2ccncc2)CC1
9,46,NN(CCc1ccccc1)[C@H]1CC[C@H](C(=O)Nc2ccncc2)CC1
10,40,NN(CC1CCCCC1)[C@H]1CC[C@H](C(=O)Nc2ccncc2)CC1
11,13,CC(C)CCN(N)[C@H]1CC[C@@H](C(=O)Nc2ccncc2)CC1
12,45,NN(CC(c1ccccc1)c1ccccc1)[C@H]1CC[C@H](C(=O)Nc2ccncc2)CC1
13,45,C=CCC(NC)[C@H]1CC[C@H](C(=O)Nc2ccncc2)CC1 (stereo partly drawn)
14,61,NN(Cc1ccccc1)[C@H]1CC[C@H](C(=O)Nc2ccncc2)CC1
15,43,CC(C)CCN(N)[C@H]1CC[C@H](C(=O)Nc2ccncc2)CC1
16,45,CCCN(N)[C@H]1CC[C@H](C(=O)Nc2ccncc2)CC1
17,32,NN(Cc1ccccc1)[C@H]1CC[C@@H](C(=O)Nc2ccncc2)CC1
18,44,C=CCC(NCc1ccccc1)[C@H]1CC[C@H](C(=O)Nc2ccncc2)CC1 (stereo partly drawn)
19,59,NN(Cc1ccc(OCc2ccccc2)cc1)[C@H]1CC[C@H](C(=O)Nc2ccncc2)CC1
20,45,CC(C)N(N)[C@H]1CC[C@H](C(=O)Nc2ccncc2)CC1
21,25,CC(C)N(N)[C@H]1CC[C@@H](C(=O)Nc2ccncc2)CC1
